Drawing on patent US20240335442A1 (Eurofarma Laboratórios S.A., priority 2021, published 2024), this text covers IC50 for 26 compounds.

For test [1], the target named is human sodium channel Nav 1.7 (Homo sapiens (Human), UniProt Q15858). The test can be described thus: Automated whole-cell voltage-clamp (ScreenPatch 384P), Nav 1.7 sodium current, Protocol 2. Format: cell-based. The settings on record: read-out: Nav1.7 IC50. The method, then: (§1) Biological assays were performed on Chinese hamster ovary (CHO) cells expressing the human sodium channels Nav 1.8 and Nav 1.7 stably.
Chain of human sodium channel Nav 1.7 (Q15858 whole entry): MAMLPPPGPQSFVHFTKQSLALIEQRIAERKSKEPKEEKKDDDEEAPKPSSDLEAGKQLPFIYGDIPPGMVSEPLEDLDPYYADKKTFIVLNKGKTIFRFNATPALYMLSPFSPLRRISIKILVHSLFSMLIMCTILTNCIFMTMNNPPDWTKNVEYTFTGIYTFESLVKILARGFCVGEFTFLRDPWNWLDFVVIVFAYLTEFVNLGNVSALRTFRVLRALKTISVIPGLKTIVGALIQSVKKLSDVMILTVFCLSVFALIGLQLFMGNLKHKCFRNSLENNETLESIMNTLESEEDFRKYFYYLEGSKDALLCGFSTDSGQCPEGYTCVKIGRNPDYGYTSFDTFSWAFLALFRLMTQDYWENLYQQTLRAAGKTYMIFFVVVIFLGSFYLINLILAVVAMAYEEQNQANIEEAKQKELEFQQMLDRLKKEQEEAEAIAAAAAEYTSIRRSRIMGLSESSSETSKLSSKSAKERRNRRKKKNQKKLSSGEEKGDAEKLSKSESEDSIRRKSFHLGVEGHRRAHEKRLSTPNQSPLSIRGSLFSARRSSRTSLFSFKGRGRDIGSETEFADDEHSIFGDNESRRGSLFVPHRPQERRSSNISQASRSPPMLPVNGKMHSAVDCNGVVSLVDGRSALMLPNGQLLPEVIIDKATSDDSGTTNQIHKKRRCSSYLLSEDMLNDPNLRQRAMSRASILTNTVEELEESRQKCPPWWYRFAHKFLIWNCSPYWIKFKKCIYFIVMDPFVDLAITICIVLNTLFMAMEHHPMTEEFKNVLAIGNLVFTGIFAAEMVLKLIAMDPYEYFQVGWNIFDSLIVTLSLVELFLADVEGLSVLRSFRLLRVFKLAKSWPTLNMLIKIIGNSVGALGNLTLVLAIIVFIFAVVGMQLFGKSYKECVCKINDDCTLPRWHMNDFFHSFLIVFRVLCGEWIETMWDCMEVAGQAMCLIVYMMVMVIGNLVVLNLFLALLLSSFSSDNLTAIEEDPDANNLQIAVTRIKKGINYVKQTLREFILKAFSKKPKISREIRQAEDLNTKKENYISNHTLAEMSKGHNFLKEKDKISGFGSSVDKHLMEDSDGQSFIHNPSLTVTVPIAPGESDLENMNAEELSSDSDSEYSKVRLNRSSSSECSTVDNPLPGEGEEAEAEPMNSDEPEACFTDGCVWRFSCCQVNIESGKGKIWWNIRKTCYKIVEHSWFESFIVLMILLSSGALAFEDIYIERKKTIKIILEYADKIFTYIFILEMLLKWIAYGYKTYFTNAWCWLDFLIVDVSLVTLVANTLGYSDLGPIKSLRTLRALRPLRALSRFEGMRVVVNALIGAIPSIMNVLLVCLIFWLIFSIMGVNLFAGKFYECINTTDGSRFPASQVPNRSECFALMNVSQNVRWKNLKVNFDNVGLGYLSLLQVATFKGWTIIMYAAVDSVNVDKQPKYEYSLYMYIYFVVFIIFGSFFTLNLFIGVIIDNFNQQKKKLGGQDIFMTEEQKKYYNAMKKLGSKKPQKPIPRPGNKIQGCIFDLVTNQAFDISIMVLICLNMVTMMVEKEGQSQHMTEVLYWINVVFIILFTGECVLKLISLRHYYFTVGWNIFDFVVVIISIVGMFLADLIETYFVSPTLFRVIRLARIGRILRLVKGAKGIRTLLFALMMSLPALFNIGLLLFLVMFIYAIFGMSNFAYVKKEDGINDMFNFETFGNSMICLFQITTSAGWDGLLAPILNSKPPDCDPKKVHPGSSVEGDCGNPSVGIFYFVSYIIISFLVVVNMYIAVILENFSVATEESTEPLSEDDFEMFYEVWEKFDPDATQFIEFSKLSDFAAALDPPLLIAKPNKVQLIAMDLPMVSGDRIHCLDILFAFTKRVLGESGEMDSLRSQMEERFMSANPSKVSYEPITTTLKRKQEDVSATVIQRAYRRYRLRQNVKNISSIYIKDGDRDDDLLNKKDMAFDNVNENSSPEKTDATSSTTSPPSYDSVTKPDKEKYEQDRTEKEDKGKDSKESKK
(§2) The experimental voltage-clamp protocol using the whole cell configuration was established on the automated ScreenPatch® 384P platform (SP384PE, Nanion Technologies, Livingston, NJ) and recording of the results was performed with a Nanion 384-well Patch Clamp chip (NPC) (Nanion Technologies, Livingston, NJ).
(§3) Compounds of Formula (I), were diluted in eight concentrations in the extracellular solution composed of physiological saline, buffered with HEPES (mM): NaCl, 137; KCl, 4; CaCl2, 3.8; MgCl2, 1; HEPES, 10; Glucose, 10; pH 7.4. The […], 50; CsF, 90; MgCl2, 5; EGTA, 5; HEPES, 10; pH 7.2. The duration of exposure of each compound with the cells expressing Nav 1.7 or Nav 1.8 was at least five minutes and the assays were performed at room temperature.
(§4) The measurements of the sodium currents of Nav 1.8 and Nav 1.7 were obtained using the voltage protocols described below: • Protocol 1: A holding voltage of-90 mV was established followed by a voltage phase of 200 ms to-120 mV, followed by a voltage step of 10 mV for 1 second for Nav 1.8 or 0 mV for Nav 1.7, followed by a step of-100 mV for 20 ms, followed by a step of 20 ms for 10 mV for Nav 1.8 or 0 mV for Nav 1.7 (TP1A) before returning to the holding voltage of-90 mV. • Protocol 2: A holding voltage of-100 mV was established followed by an inactivation voltage step at −40 mV for 8 seconds, followed by a −100 mV step for 20 ms, followed by a 20 ms step for 10 mV for Nav 1.8 or 0 mV for Nav 1.7 (TP1A) before returning to the holding voltage of-100 mV.
(§5) Protocols were repeated at a frequency of 0.1 Hz (Protocol 1) or 0.05 Hz (Protocol 2) and current amplitude was quantified over the TP1A phase log. The variation in the peak amplitude of the current was evaluated according to the Formula described below, after exposure of the cells expressing the channels, at each concentration of the different compounds:
(§6) where ITP1A,basal, and ITP1A,molecule represent the entry peaks of sodium currents into TP1A prior to exposure to the compound and in the presence of the compound, respectively.
(§7) The decrease in peak current amplitude, after exposure of the cells to the compounds, was used to calculate the percent relative blocking of the channels relative to the positive control according to the Formula below: […]
(§8) where % V and % CP represent the averages of the values of current inhibition with a vehicle (DMSO) and positive controls, respectively. The sodium currents of the positive control were considered as 100%.
(§9) where [Test] represents the concentration of the evaluated molecule, IC50 is the concentration of the compound that generates half of the maximum inhibition, N is the Hill's coefficient and % Block′ is the percentage of the sodium channel current (Nav 1.8 and Nav 1.7) inhibited at each concentration of the evaluated molecule. Data were obtained by non linear least squares regression with XL fit for Excel (Microsoft, Redmond, WA).
(§10) Compounds were tested in at least one assay to obtain the IC50 value.

For test [2], the target named is human sodium channel Nav 1.8 (Homo sapiens (Human), UniProt Q9Y5Y9). Nature of the test: Automated whole-cell voltage-clamp (ScreenPatch 384P), Nav 1.8 sodium current, Protocol 2. The class given is cell-based. The conditions noted are these: read-out: Nav1.8 IC50. The method, then: as §1, §2, §3, §4, §5, §6, §7, §8, §9, §10
Chain of human sodium channel Nav 1.8 (Q9Y5Y9 whole entry): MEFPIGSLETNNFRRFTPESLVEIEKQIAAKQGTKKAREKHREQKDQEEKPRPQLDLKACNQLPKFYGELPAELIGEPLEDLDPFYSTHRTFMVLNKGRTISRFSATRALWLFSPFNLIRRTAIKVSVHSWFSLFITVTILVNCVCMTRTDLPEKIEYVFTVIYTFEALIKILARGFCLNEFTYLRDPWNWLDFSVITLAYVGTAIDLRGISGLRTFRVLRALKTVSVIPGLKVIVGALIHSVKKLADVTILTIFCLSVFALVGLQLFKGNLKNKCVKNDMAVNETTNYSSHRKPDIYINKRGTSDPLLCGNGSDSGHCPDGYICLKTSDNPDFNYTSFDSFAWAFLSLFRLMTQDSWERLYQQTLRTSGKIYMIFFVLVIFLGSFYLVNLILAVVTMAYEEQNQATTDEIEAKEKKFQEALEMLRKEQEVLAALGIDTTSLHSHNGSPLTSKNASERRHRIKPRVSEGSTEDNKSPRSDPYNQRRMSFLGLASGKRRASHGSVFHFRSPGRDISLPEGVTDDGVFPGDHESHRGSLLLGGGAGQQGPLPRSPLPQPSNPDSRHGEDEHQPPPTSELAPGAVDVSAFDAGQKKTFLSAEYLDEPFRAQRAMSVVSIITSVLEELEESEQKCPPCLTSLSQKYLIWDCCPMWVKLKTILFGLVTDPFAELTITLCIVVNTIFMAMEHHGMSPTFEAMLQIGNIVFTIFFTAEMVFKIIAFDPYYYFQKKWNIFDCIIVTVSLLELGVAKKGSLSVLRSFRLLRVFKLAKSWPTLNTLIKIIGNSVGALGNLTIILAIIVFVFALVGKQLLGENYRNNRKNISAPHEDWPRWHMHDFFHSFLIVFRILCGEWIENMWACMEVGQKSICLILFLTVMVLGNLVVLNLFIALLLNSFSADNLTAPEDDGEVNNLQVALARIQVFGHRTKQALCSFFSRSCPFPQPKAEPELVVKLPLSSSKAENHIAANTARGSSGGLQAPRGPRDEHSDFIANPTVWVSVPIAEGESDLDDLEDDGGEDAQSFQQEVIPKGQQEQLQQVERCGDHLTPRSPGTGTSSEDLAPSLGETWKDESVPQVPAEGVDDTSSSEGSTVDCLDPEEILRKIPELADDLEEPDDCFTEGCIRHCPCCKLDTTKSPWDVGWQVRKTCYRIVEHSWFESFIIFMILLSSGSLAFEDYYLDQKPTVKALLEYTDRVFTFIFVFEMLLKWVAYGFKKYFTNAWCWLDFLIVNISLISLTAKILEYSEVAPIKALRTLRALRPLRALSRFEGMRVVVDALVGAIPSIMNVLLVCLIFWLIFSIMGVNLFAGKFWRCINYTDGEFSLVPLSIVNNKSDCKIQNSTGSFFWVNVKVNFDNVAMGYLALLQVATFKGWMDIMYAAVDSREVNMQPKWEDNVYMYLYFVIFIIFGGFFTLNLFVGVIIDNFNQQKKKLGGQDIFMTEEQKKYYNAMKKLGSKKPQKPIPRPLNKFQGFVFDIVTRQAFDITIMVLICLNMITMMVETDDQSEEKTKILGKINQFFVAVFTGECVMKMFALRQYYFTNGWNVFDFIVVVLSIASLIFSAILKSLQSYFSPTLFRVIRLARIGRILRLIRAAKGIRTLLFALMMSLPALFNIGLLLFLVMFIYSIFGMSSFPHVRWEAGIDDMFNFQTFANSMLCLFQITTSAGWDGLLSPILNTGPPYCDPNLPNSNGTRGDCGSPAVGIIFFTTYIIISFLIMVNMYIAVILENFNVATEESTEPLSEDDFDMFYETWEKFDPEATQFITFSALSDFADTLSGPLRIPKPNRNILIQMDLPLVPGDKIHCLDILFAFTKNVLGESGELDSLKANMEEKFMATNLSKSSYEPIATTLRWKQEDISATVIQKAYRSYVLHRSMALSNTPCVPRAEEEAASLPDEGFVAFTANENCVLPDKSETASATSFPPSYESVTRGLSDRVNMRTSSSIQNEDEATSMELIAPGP

Molecules are shown by their SMILES.

`COc1cc(/C=N/NC(=O)c2cncc(-c3ccccn3)n2)cc(OC)c1` [Compound 125, (E)-N′-(3,5-dimethoxybenzylidene)-6-(pyridin-2-yl)pyrazine-2-carbohydrazide]: the IC50 (in general, the concentration that gives 50% inhibition) was greater than 10000 nM in test [1] and greater than 1000 nM in test [2].
The corresponding values for `COc1cc(/C=N/NC(=O)c2nccnc2Cl)cc(OC)c1` [Compound 165, (E)-3-chloro-N′-(3,5-dimethoxybenzylidene)pyrazine-2-carbohydrazide] are greater than 10000 nM and greater than 1000 nM.
Consider `COc1ccc(-c2cncc(C(=O)N/N=C/c3cccnc3)n2)cc1` [Compound 77, (E)-6-(4-methoxyphenyl)-N′-(pyridin-3-ylmethylene)pyrazine-2-carbohydrazide], for which the half-inhibitory concentration (IC50) is greater than 10000 nM in test [1] and greater than 1000 nM in test [2].
The corresponding values for `CCOc1ccc(-c2nc(C(=O)N/N=C/c3cc(OC)cc(OC)c3)cnc2OCC)cc1` [Compound 212, (E)-N′-(3,5-dimethoxybenzylidene)-5-ethoxy-6-(4-ethoxyphenyl)pyrazine-2-carbohydrazide] are greater than 10000 nM and greater than 1000 nM.
`CCOc1ccc(-c2cncc(C(=O)N/N=C/c3cc(OC)c(F)c(OC)c3)n2)cc1` [Compound 17, (E)-6-(4-ethoxyphenyl)-N′-(4-fluoro-3,5-dimethoxybenzylidene)pyrazine-2-carbohydrazide]: the IC50 in test [1] was 7860 nM; in test [2], 232 nM.
The corresponding values for `COc1ccc(-c2cncc(C(=O)N/N=C/c3ccc(OC)c(OC)c3OC)n2)cc1` [Compound 82, (E)-6-(4-methoxyphenyl)-N′-(2,3,4-trimethoxybenzylidene)pyrazine-2-carbohydrazide] are 2770 nM and greater than 1000 nM.
The corresponding values for `CC1=C(/C=N/NC(=O)c2cncc(-c3ccc(OC(C)C)cc3)n2)CCCCC1` [Compound 202, (E)-6-(4-isopropoxyphenyl)-N′-((2-methylcyclohept-1-en-1-yl)methylene)pyrazine-2-carbohydrazide] are 107 nM and 93 nM.
Take `COc1cc(/C=N/NC(=O)c2cncc(-c3ccc(OC4CCCC4)cc3)n2)cc(OC)c1` [Compound 30, 6-[4-(cyclopentyloxy)phenyl]-N′-[(E)-(3,5-dimethoxyphenyl)methylidene]pyrazine-2-carbohydrazide]: the IC50 turned out to be 55.6 nM in test [1] and 102 nM in test [2].
For `COc1ccc(-c2cncc(C(=O)N/N=C/c3cccc(C(F)(F)F)c3)n2)cc1` [Compound 56, (E)-6-(4-methoxyphenyl)-N′-(3-(trifluoromethyl)benzylidene)pyrazine-2-carbohydrazide], the IC50 in test [1] worked out at 5480 nM; in test [2] it was 462 nM.
Regarding `COc1ccc(-c2cncc(C(=O)N/N=C/c3cccc(C(C)(C)C)c3)n2)cc1` [Compound 59, (E)-N′-(3-(tert-butyl)benzylidene)-6-(4-methoxyphenyl)pyrazine-2-carbohydrazide], the IC50 came out at 1850 nM in test [1] and 492 nM in test [2].
The like results for `COc1ccc(-c2cncc(C(=O)N/N=C/c3ccc(C(C)(C)C)cc3)n2)cc1` [Compound 66, (E)-N′-(4-(tert-butyl)benzylidene)-6-(4-methoxyphenyl)pyrazine-2-carbohydrazide] were, in that order, greater than 10000 nM and greater than 1000 nM.
For `CCOc1ccc(-c2cncc(C(=O)N/N=C/c3cccc(OC)c3OC)n2)cc1` [Compound 27, (E)-N′-(2,3-dimethoxybenzylidene)-6-(4-ethoxyphenyl)pyrazine-2-carbohydrazide], the results for the IC50 in test [1] and in test [2] were 233 nM and 221 nM, respectively.
For `CCc1cnc(C(=O)N/N=C/c2cc(OC)cc(OC)c2)cn1` [Compound 167, (E)-N′-(3,5-dimethoxybenzylidene)-5-ethylpyrazine-2-carbohydrazide], the 50% inhibitory concentration (IC50) in test [1] was greater than 10000 nM; in test [2], greater than 1000 nM.
The corresponding values for `COc1ccc(-c2cncc(C(=O)N/N=C/c3cccc(CN(C)C)c3)n2)cc1` [Compound 38, (E)-N′-(3-((dimethylamino)methyl)benzylidene)-6-(4-methoxyphenyl)pyrazine-2-carbohydrazide] are greater than 10000 nM and greater than 1000 nM.
On to `COc1cc(/C=N/NC(=O)c2cncc(-c3ccccc3F)n2)cc(OC)c1` [Compound 98, (E)-N′-(3,5-dimethoxybenzylidene)-6-(2-fluorophenyl)pyrazine-2-carbohydrazide], for which the IC50 was greater than 10000 nM in test [1] and greater than 1000 nM in test [2].
The corresponding values for `COc1cc(/C=N/NC(=O)c2nccnc2C(C)C)cc(OC)c1` [Compound 135, (E)-N′-(3,5-dimethoxybenzylidene)-3-isopropylpyrazine-2-carbohydrazide] are greater than 10000 nM and greater than 1000 nM.
Take `CCOc1ccc(-c2cncc(C(=O)N/N=C/c3cc(OC)ccc3Cl)n2)cc1` [Compound 18, (E)-N′-(2-chloro-5-methoxybenzylidene)-6-(4-ethoxyphenyl)pyrazine-2-carbohydrazide]: the results for the IC50 in test [1] and in test [2] were 237 nM and 62.6 nM, respectively.
The like results for `COc1cc(/C=N/NC(=O)c2cncc(-c3ccc(OC)nc3)n2)cc(OC)c1` [Compound 184, (E)-N′-(3,5-dimethoxybenzylidene)-6-(6-methoxypyridin-3-yl)pyrazine-2-carbohydrazide] were, in that order, greater than 10000 nM and 398 nM.
Consider `COc1ccc(-c2cnc(C(=O)N/N=C/c3cc(OC)cc(OC)c3)cn2)cc1` [Compound 91, (E)-N′-(3,5-dimethoxybenzylidene)-5-(4-methoxyphenyl)pyrazine-2-carbohydrazide], for which the IC50 was greater than 10000 nM in test [1] and greater than 1000 nM in test [2].
As for `CCOc1ccc(-c2nc(C(=O)N/N=C/c3cc(OC)cc(OC)c3)cnc2C(F)(F)F)cc1` [Compound 210, (E)-N′-(3,5-dimethoxybenzylidene)-6-(4-ethoxyphenyl)-5-(trifluoromethyl)pyrazine-2-carbohydrazide], the results for the IC50 in test [1] and in test [2] were greater than 10000 nM and 680 nM, respectively.
The corresponding values for `COc1cc(/C=N/NC(=O)c2cncc(-c3ccc(C(=O)NS(C)(=O)=O)cc3)n2)cc(OC)c1` [Compound 190, (E)-4-(6-(2-(3,5-dimethoxybenzylidene)hydrazine-1-carbonyl)pyrazin-2-yl)-N-(methylsulfonyl)benzamide] are greater than 10000 nM and greater than 1000 nM.
The corresponding values for `COc1ccc(-c2cncc(C(=O)N/N=C/c3ccccc3OC)n2)cc1` [Compound 42, (E)-N′-(2-methoxybenzylidene)-6-(4-methoxyphenyl)pyrazine-2-carbohydrazide] are 3900 nM and 621 nM.
As for `COc1cc(/C=N/NC(=O)c2cncc(-c3ccc(OCC(C)C)cc3Cl)n2)cc(OC)c1` [Compound 159, (E)-6-(2-chloro-4-isobutoxyphenyl)-N′-(3,5-dimethoxybenzylidene)pyrazine-2-carbohydrazide], the IC50 in test [1] was 217 nM; in test [2] it was 293 nM.
The corresponding values for `COc1ccc(-c2cncc(C(=O)N/N=C/c3cc(C(F)(F)F)cc(C(F)(F)F)c3)n2)cc1` [Compound 73, (E)-N′-(3,5-bis(trifluoromethyl)benzylidene)-6-(4-methoxyphenyl)pyrazine-2-carbohydrazide] are greater than 10000 nM and 777 nM.
The corresponding values for `CCOc1ccc(-c2cncc(C(=O)N/N=C/C3CCCCCC3)n2)cc1` [Compound 182, (E)-N′-(cycloheptylmethylene)-6-(4-ethoxyphenyl)pyrazine-2-carbohyrazide] are greater than 10000 nM and 300 nM.
The like results for `COc1ccc(-c2cncc(C(=O)N/N=C/c3cccc(C)c3)n2)cc1` [Compound 58, (E)-6-(4-methoxyphenyl)-N′-(3-methylbenzylidene)pyrazine-2-carbohydrazide] were, in that order, 1050 nM and 97 nM.
